Among the data in ChEMBL document CHEMBL5625170, “Design, synthesis, and biological evaluation of novel penindolone derivatives as potential inhibitors of hemagglutinin-mediated membrane fusion” (Eur J Med Chem, 2023) are IC50 values, retold here.

The structures appear in SMILES notation.

The test system of this assay is Influenza A virus. In words: Anti-viral activity against Influenza A virus amantadine-resistant strain (A/Puerto Rico/8/34) infected in MDCK cells assessed as inhibition of virus cytopathic effect measured after 48 hrs by crystal violet staining based assay. In kind it is functional, organism-based. As to conditions: A/Puerto Rico/8/34, MDCK. On the technique in general: Protection from cytopathic effect is a common read-out in antiviral testing.

For `COc1ccc2cc(-c3ccc4[nH]c(Cc5c(O)c(C)cc(C(C)=O)c5O)c(Cc5c(O)c(C)cc(C(C)=O)c5O)c4c3)ccc2c1`, the IC50 turned out to be 21.2 µM.

For `CC(=O)c1cc(C)c(O)c(Cc2[nH]c3ccc(-c4ccc(F)cc4)cc3c2Cc2c(O)c(C)cc(C(C)=O)c2O)c1O`, the IC50 was greater than 30 µM.

Consider `CC(=O)c1cc(C)c(O)c(Cc2[nH]c3cc(-c4ccccc4F)ccc3c2Cc2c(O)c(C)cc(C(C)=O)c2O)c1O`, for which the IC50 is greater than 30 µM.

On to `CC(=O)c1cc(C)c(O)c(Cc2[nH]c3ccc(-c4cccc(F)c4)cc3c2Cc2c(O)c(C)cc(C(C)=O)c2O)c1O`, for which the IC50 is greater than 30 µM.

On to `COc1ccc(-c2ccc3c(Cc4c(O)c(C)cc(C(C)=O)c4O)c(Cc4c(O)c(C)cc(C(C)=O)c4O)[nH]c3c2)cc1`, for which the IC50 came to 8.7 µM.

Take `CC(=O)c1cc(C)c(O)c(Cc2[nH]c3cc(-c4ccc(Cl)cc4)ccc3c2Cc2c(O)c(C)cc(C(C)=O)c2O)c1O`: the IC50 is greater than 30 µM.

On to `CC(=O)c1cc(C)c(O)c(Cc2[nH]c3cc(-c4c5ccccc5cc5ccccc45)ccc3c2Cc2c(O)c(C)cc(C(C)=O)c2O)c1O`, for which the IC50 stood at 8.3 µM.

Regarding `CC(=O)c1cc(C)c(O)c(Cc2[nH]c3ccc(-c4c5ccccc5cc5ccccc45)cc3c2Cc2c(O)c(C)cc(C(C)=O)c2O)c1O`, the IC50 is 6.7 µM.

Turning to `CC(=O)c1cc(C)c(O)c(Cc2[nH]c3ccc(-c4ccccc4)cc3c2Cc2c(O)c(C)cc(C(C)=O)c2O)c1O`, the IC50 amounted to 26 µM.

For `CC(=O)c1cc(C)c(O)c(Cc2c(Cc3c(O)c(C)cc(C(C)=O)c3O)n(N)c3ccccc23)c1O`, the IC50 was greater than 30 µM.

On to `CC(=O)c1cc(C)c(O)c(Cc2[nH]c3ccc(-c4ccc(Cl)cc4)cc3c2Cc2c(O)c(C)cc(C(C)=O)c2O)c1O`, for which the half-maximal inhibitory concentration (IC50) is 27 µM.

`COc1cc(-c2ccc3c(Cc4c(O)c(C)cc(C(C)=O)c4O)c(Cc4c(O)c(C)cc(C(C)=O)c4O)[nH]c3c2)cc(OC)c1OC`: the IC50 was found to be 20.1 µM.

On to `COc1cccc(OC)c1-c1ccc2c(Cc3c(O)c(C)cc(C(C)=O)c3O)c(Cc3c(O)c(C)cc(C(C)=O)c3O)[nH]c2c1`, for which the IC50 was 19.5 µM.

`CC(=O)c1cc(C)c(O)c(Cc2[nH]c3ccc(-c4ccc5ccccc5c4)cc3c2Cc2c(O)c(C)cc(C(C)=O)c2O)c1O`: the IC50 came out at 20.7 µM.

Consider `CC(=O)c1cc(C)c(O)c(Cc2[nH]c3cc(-c4ccc(F)cc4)ccc3c2Cc2c(O)c(C)cc(C(C)=O)c2O)c1O`, for which the concentration for half-maximal inhibition (IC50) was found to be 20.6 µM.

`CC(=O)c1cc(C)c(O)c(Cc2[nH]c3cc(-c4cc(C(F)(F)F)cc(C(F)(F)F)c4)ccc3c2Cc2c(O)c(C)cc(C(C)=O)c2O)c1O`: the IC50 was greater than 30 µM.

With `CC(=O)c1cc(C)c(O)c(Cc2[nH]c3cc(-c4ccsc4)ccc3c2Cc2c(O)c(C)cc(C(C)=O)c2O)c1O`, the 50% inhibitory concentration (IC50) is greater than 30 µM.

Consider `CC(=O)c1cc(C)c(O)c(Cc2[nH]c3cc(-c4ccc(C(F)(F)F)cc4)ccc3c2Cc2c(O)c(C)cc(C(C)=O)c2O)c1O`, for which the IC50 turned out to be 25 µM.

Consider `COc1cc(-c2ccc3[nH]c(Cc4c(O)c(C)cc(C(C)=O)c4O)c(Cc4c(O)c(C)cc(C(C)=O)c4O)c3c2)cc(OC)c1OC`, for which the IC50 worked out at 8 µM.

Take `CC(=O)c1cc(C)c(O)c(Cc2[nH]c3ccc(Cl)cc3c2Cc2c(O)c(C)cc(C(C)=O)c2O)c1O`: the IC50 is greater than 30 µM.

Take `COc1ccc(-c2ccc3c(Cc4c(O)c(C)cc(C(C)=O)c4O)c(Cc4c(O)c(C)cc(C(C)=O)c4O)[nH]c3c2)cc1OC`: the IC50 came to 19.7 µM.

On to `CC(=O)c1cc(C)c(O)c(Cc2[nH]c3cc(-c4ccc(C)cc4)ccc3c2Cc2c(O)c(C)cc(C(C)=O)c2O)c1O`, for which the IC50 came to 24.1 µM.

Take `CC(=O)c1cc(C)c(O)c(Cc2[nH]c3cc(-c4ccc5c(c4)CCO5)ccc3c2Cc2c(O)c(C)cc(C(C)=O)c2O)c1O`: the IC50 was greater than 30 µM.

As to `CC(=O)c1cc(C)c(O)c(Cc2[nH]c3cc(-c4cccc(F)c4)ccc3c2Cc2c(O)c(C)cc(C(C)=O)c2O)c1O`, the IC50 is greater than 30 µM.

For the compound `CSc1ccc(-c2ccc3[nH]c(Cc4c(O)c(C)cc(C(C)=O)c4O)c(Cc4c(O)c(C)cc(C(C)=O)c4O)c3c2)cc1`, the IC50 worked out at 17.5 µM.

`CSc1ccc(-c2ccc3c(Cc4c(O)c(C)cc(C(C)=O)c4O)c(Cc4c(O)c(C)cc(C(C)=O)c4O)[nH]c3c2)cc1`: the IC50 is 9.1 µM.

In the case of `CC(=O)c1cc(C)c(O)c(Cc2[nH]c3ccc(/C=C/c4ccccc4)cc3c2Cc2c(O)c(C)cc(C(C)=O)c2O)c1O`, the IC50 is greater than 30 µM.

In the case of `CC(=O)c1cc(C)c(O)c(Cc2[nH]c3ccc(-c4cccc(O)c4)cc3c2Cc2c(O)c(C)cc(C(C)=O)c2O)c1O`, the concentration for half-maximal inhibition (IC50) is greater than 30 µM.

Turning to `COc1ccc(Cn2c(Cc3c(O)c(C)cc(C(C)=O)c3O)c(Cc3c(O)c(C)cc(C(C)=O)c3O)c3ccccc32)cc1`, the IC50 is greater than 30 µM.

On to `CC(=O)c1cc(C)c(O)c(Cc2[nH]c3ccc(-c4csc5ccccc45)cc3c2Cc2c(O)c(C)cc(C(C)=O)c2O)c1O`, for which the IC50 is 23.4 µM.

With `CC(=O)c1cc(C)c(O)c(Cc2[nH]c3cc(-c4c5ccccc5c(-c5ccccc5)c5ccccc45)ccc3c2Cc2c(O)c(C)cc(C(C)=O)c2O)c1O`, the IC50 was greater than 30 µM.

As to `COc1ccc2c(Cc3c(O)c(C)cc(C(C)=O)c3O)c(Cc3c(O)c(C)cc(C(C)=O)c3O)[nH]c2c1`, the IC50 amounted to 12.6 µM.

Consider `CC(=O)c1cc(C)c(O)c(Cc2[nH]c3cc(-c4ccc5c(c4)OCCO5)ccc3c2Cc2c(O)c(C)cc(C(C)=O)c2O)c1O`, for which the IC50 is 9.1 µM.

In the case of `CC(=O)c1cc(C)c(O)c(Cc2[nH]c3ccc(C)cc3c2Cc2c(O)c(C)cc(C(C)=O)c2O)c1O`, the IC50 amounted to 20.6 µM.

For `COc1ccc(-c2ccc3[nH]c(Cc4c(O)c(C)cc(C(C)=O)c4O)c(Cc4c(O)c(C)cc(C(C)=O)c4O)c3c2)cc1`, the IC50 worked out at 16.3 µM.

In the case of `CC(=O)c1cc(C)c(O)c(Cc2[nH]c3ccc(-c4ccc5c(c4)CCO5)cc3c2Cc2c(O)c(C)cc(C(C)=O)c2O)c1O`, the half-inhibitory concentration (IC50) is greater than 30 µM.

Take `CC(=O)c1cc(C)c(O)c(Cc2[nH]c3ccc(-c4ccsc4)cc3c2Cc2c(O)c(C)cc(C(C)=O)c2O)c1O`: the IC50 was greater than 30 µM.

Take `COc1ccc2cc(-c3ccc4c(Cc5c(O)c(C)cc(C(C)=O)c5O)c(Cc5c(O)c(C)cc(C(C)=O)c5O)[nH]c4c3)ccc2c1`: the IC50 worked out at 23.3 µM.

Turning to `CC(=O)c1cc(C)c(O)c(Cc2[nH]c3cc(-c4ccccc4)ccc3c2Cc2c(O)c(C)cc(C(C)=O)c2O)c1O`, the IC50 stood at 23.4 µM.

In the case of `CC(=O)c1cc(C)c(O)c(Cc2[nH]c3ccccc3c2Cc2c(O)c(C)cc(C(C)=O)c2O)c1O`, the IC50 came out at 25.5 µM.

In the case of `COc1ccc(-c2ccc3[nH]c(Cc4c(O)c(C)cc(C(C)=O)c4O)c(Cc4c(O)c(C)cc(C(C)=O)c4O)c3c2)cc1OC`, the IC50 stood at 18.1 µM.

As a reminder, the IC50 is the concentration needed to halve the response being measured.
